From US20240116945A1, “EXATECAN-DERIVED TOPOISOMERASE-1 INHIBITORS PHARMACEUTICAL COMPOSITIONS, AND USES THEREOF” (Merck Sharp & Dohme LLC, priority 2022, published 2024)
pEC50: −log10 of the molar value. Structures can show the parent of a compound that is named as a salt.

The compounds below were run on Jeko-1 cells (assay: CellTiter-Glo 2.0 Cytotoxicity Assay). Conditions: Homo sapiens, JeKo-1, read-out: Jeko-1 EC50 (nM), Jeko-1 cells, 3000 cells/well; compounds added Day 1; CellTiter-Glo 2.0 luminescence read on Day 4 or 5.
Type: cell-based
Method: Reaction progress and synthetic intermediate analysis were assessed by LCMS (UV detection with ESI, APCI, or other mass detection) when applicable using a MeCN/water gradient with either TFA, formic acid, or NH4HCO3 modifier. Silica gel and reverse-phase flash column chromatography were conducted with commercially available pre-packed columns. Reverse-phase preparative HPLC purification was performed on preparative HPLC instruments with UV and MS detection using a MeCN/water gradient with either TFA, formic acid, or NH4OH modifier. ^1H NMR spectra were collected at room temperature, and chemical shifts are reported in ppm relative to the residual proteo-solvent signals, and multiplicities, coupling constants (where applicable), and signal integrations are listed parenthetically. Unless otherwise noted, all EC50 data presented in tables refers to the CellTiter-Glo® 2.0 Cytotoxicity Assay that is described in the Biological Assay section.
CellTiter-Glo® 2.0 Cytotoxicity Assay
Step 1: Seed 384-Well Plates for Assay (45 μL Per Well) on Day 0
Jeko-1 cells were quickly thawed in a cryo-vial by incubating them in a 37° C. water bath for <1 min until there is just a small bit of ice left in the vial. The vial was promptly removed and wiped down with 70% ethanol. The cells were transferred from the vial to a sterile centrifuge tube containing 8 mL of pre-warmed cell culture medium. The vial was flushed with an additional 1 mL of medium to ensure complete transfer of cells to the centrifuge tube. The cells were then centrifuged at 150×g for 5 minutes. The supernatant was aspirated, and the cell pellet was resuspended in 10-20 mL cell culture medium. Cells were counted using Vi-cell and prepared 6.6×10^4 cells/ml, 3000 cells/45 μL per well. Then added 45 μL/well of cells into Corning® 384-well Low Flange White Flat Bottom Polystyrene TC-treated Microplates (Corning, Cat #3570) using Standard Cassette Combi (if needed, dispense 1 dummy plate at 20 μL to help normalize Combi, using medium speed). The plates were spun down at 150×g for 30 seconds.
Step 2: Add Compounds on Day 1
The compound plates and reference compound stock were taken out and allowed to thaw at RT. The tubes were centrifuged at 2000×g for 30 seconds. The 10× Intermediate assay plates (Greiner plate, Cat #781280) were prepared using an Echo liquid handler. Proper buffer (HBSS (Gibco, Cat #14025-092)+10 mM HEPES (Gibco, Cat #15630-080)+0.1% BSA (Sigma, Cat #A9576)) were used to make serial dilutions. Media (no cells) was used for Max_E. Compound (5 μL of 10×) was transferred from intermediate plate to assay plate using a Bravo liquid handler using a very slow speed so the cell monolayer wasn't disturbed. The plates were spun down at 150×g for 30 seconds.
Step 3: CellTiter-Glo 2.0 Assay (Promega, Cat #G9242) on Day 4 or 5 (CellTiter-Glo Kit Stored at −70° C.)
The CellTiter-Glo® 2.0 Reagent was thawed at 4° C. overnight, taking care not to expose the reagent to temperatures above 25° C.). The kit was equilibrated to RT for approximately 30 minutes. CellTiter-Glo® 2.0 Reagent (20 μl) was added to 50 μl of medium containing cells using Standard Cassette Combi. The contents were mixed for 2-3 minutes on an orbital shaker to induce cell lysis. The plates were spun down at 150×g for 30 seconds. The plates were allowed to incubate at RT for 5 minutes to stabilize the luminescent signal.
Illustrative compounds of the present disclosure were tested in the above assay in Example 15, and results are provided in the Table 9 below: […]

SMILES	EC50 [nM]
CC[C@@]1(O)C(=O)OCc2c1cc1n(c2=O)Cc2c-1nc1cc(F)c(C)c3c1c2[C@@H](NC(=O)[C@H](O)CO)CC3 [Compound 29]	3.7
CC[C@@]1(O)C(=O)OCc2c1cc1n(c2=O)Cc2c-1nc1cc(F)c(C)c3c1c2[C@@H](NC(=O)C(O)C1(CO)CC1)CC3 (stereo partly drawn) [Compound 30, N-((1S,9S)-9-ethyl-5-fluoro-9-hydroxy-4-methyl-10,13-dioxo-2,3,9,10,13,15-hexahydro-1H,12H-benzo[de]pyrano[3′,4′: 6,7]indolizino[1,2-b]quinolin-1-yl)-2-hydroxy-2-(1-(hydroxymethyl)cyclopropyl)acetamide]	2.5
CC[C@@]1(O)C(=O)OCc2c1cc1n(c2=O)Cc2c-1nc1cc(F)c(C)c3c1c2[C@@H](NC(=O)[C@@H](CCO)OC)CC3 [Compound 31, (R)—N-((1S,9S)-9-ethyl-5-fluoro-9-hydroxy-4-methyl-10,13-dioxo-2,3,9,10,13,15-hexahydro-1H,12H-benzo[de]pyrano[3′,4′: 6,7]indolizino[1,2-b]quinolin-1-yl)-4-hydroxy-2-methoxybutanamide]	4.1
CC[C@@]1(O)C(=O)OCc2c1cc1n(c2=O)Cc2c-1nc1cc(F)c(C)c3c1c2[C@@H](NC(=O)[C@@H](C)CO)CC3 [Compound 32, (S)—N-((1S,9S)-9-ethyl-5-fluoro-9-hydroxy-4-methyl-10,13-dioxo-2,3,9,10,13,15-hexahydro-1H,12H-benzo[de]pyrano[3′,4′: 6,7]indolizino[1,2-b]quinolin-1-yl)-3-hydroxy-2-methylpropanamide]	1.4
CC[C@@]1(O)C(=O)OCc2c1cc1n(c2=O)Cc2c-1nc1cc(F)c(C)c3c1c2[C@@H](NC(=O)[C@H](C)CO)CC3 [Compound 33]	3.8
CC[C@@]1(O)C(=O)OCc2c1cc1n(c2=O)Cc2c-1nc1cc(F)c(C)c3c1c2[C@@H](NC(=O)C(C)(C)CCO)CC3 [Compound 38, N-((1S,9S)-9-ethyl-5-fluoro-9-hydroxy-4-methyl-10,13-dioxo-2,3,9,10,13,15-hexahydro-1H,12H-benzo[de]pyrano[3′,4′: 6,7]indolizino[1,2-b]quinolin-1-yl)-4-hydroxy-2,2-dimethylbutanamide]	4.6
CC[C@@]1(O)C(=O)OCc2c1cc1n(c2=O)Cc2c-1nc1cc(F)c(C)c3c1c2[C@@H](NC(=O)C(C)(C)N)CC3 [Compound 41, 2-amino-N-((1S,9S)-9-ethyl-5-fluoro-9-hydroxy-4-methyl-10,13-dioxo-2,3,9,10,13,15-hexahydro-1H,12H-benzo[de]pyrano[3′,4′: 6,7]indolizino[1,2-b]quinolin-1-yl)-2-methylpropanamide formate]	2.3
CC[C@@]1(O)C(=O)OCc2c1cc1n(c2=O)Cc2c-1nc1cc(F)c(C)c3c1c2[C@@H](NC(=O)C(N)CC(C)C)CC3 (stereo partly drawn) [Compound 42]	5.5
CC[C@@]1(O)C(=O)OCc2c1cc1n(c2=O)Cc2c-1nc1cc(F)c(C)c3c1c2[C@@H](NC(=O)[C@H](O)CN)CC3 [Compound 43]	27
CC[C@@]1(O)C(=O)OCc2c1cc1n(c2=O)Cc2c-1nc1cc(F)c(C)c3c1c2[C@@H](NC(=O)[C@@H](O)CN)CC3 [Compound 44]	78
CC[C@@]1(O)C(=O)OCc2c1cc1n(c2=O)Cc2c-1nc1cc(F)c(C)c3c1c2[C@@H](NC(=O)[C@@H](N)CO)CC3 [Compound 45, (S)-2-amino-N-((1S,9S)-9-ethyl-5-fluoro-9-hydroxy-4-methyl-10,13-dioxo-2,3,9,10,13,15-hexahydro-1H,12H-benzo[de]pyrano[3′,4′: 6,7]indolizino[1,2-b]quinolin-1-yl)-3-hydroxypropanamide formate]	27
CC[C@@]1(O)C(=O)OCc2c1cc1n(c2=O)Cc2c-1nc1cc(F)c(C)c3c1c2[C@@H](NC(=O)[C@H](N)CO)CC3 [Compound 46]	5
CC[C@@]1(O)C(=O)OCc2c1cc1n(c2=O)Cc2c-1nc1cc(F)c(C)c3c1c2[C@@H](NC(=O)C(C)(NC(=O)[C@@H](C)N)C(F)F)CC3 (stereo partly drawn) [Compound 47]	22
CC[C@@]1(O)C(=O)OCc2c1cc1n(c2=O)Cc2c-1nc1cc(F)c(C)c3c1c2[C@@H](NC(=O)C(C)(N)COC)CC3 (stereo partly drawn) [Compound 48]	8.7
CC[C@@]1(O)C(=O)OCc2c1cc1n(c2=O)Cc2c-1nc1cc(F)c(C)c3c1c2[C@@H](NC(=O)C(F)(F)CCN)CC3 [Compound 49, 4-amino-N-((1S,9S)-9-ethyl-5-fluoro-9-hydroxy-4-methyl-10,13-dioxo-2,3,9,10,13,15-hexahydro-1H,12H-benzo[de]pyrano[3′,4′: 6,7]indolizino[1,2-b]quinolin-1-yl)-2,2-difluorobutanamide]	14
CC[C@@]1(O)C(=O)OCc2c1cc1n(c2=O)Cc2c-1nc1cc(F)c(C)c3c1c2[C@@H](NC(=O)[C@@H](N)CN)CC3 [Compound 50, (S)-2,3-diamino-N-((1S,9S)-9-ethyl-5-fluoro-9-hydroxy-4-methyl-10,13-dioxo-2,3,9,10,13,15-hexahydro-1H,12H-benzo[de]pyrano[3′,4′: 6,7]indolizino[1,2-b]quinolin-1-yl)propanamide formate]	90
CC[C@@]1(O)C(=O)OCc2c1cc1n(c2=O)Cc2c-1nc1cc(F)c(C)c3c1c2[C@@H](NCCCO)CC3 [Compound 52]	5.1
CC[C@@]1(O)C(=O)OCc2c1cc1n(c2=O)Cc2c-1nc1cc(F)c(C)c3c1c2[C@@H](NCC(=O)NC(C)C)CC3 [Compound 55]	8.8
CC[C@@]1(O)C(=O)OCc2c1cc1n(c2=O)Cc2c-1nc1cc(F)c(C)c3c1c2[C@@H](NCc1ccccc1CO)CC3 [Compound 56]	5.5
CC[C@@]1(O)C(=O)OCc2c1cc1n(c2=O)Cc2c-1nc1cc(F)c(C)c3c1c2[C@@H](NCC(C)(F)F)CC3 [Compound 57]	6.2
CC[C@@]1(O)C(=O)OCc2c1cc1n(c2=O)Cc2c-1nc1cc(F)c(C)c3c1c2[C@@H](NCC(F)(F)C(F)F)CC3 [Compound 58]	6.2
CC[C@@]1(O)C(=O)OCc2c1cc1n(c2=O)Cc2c-1nc1cc(F)c(C)c3c1c2[C@@H](NC(C)C(F)F)CC3 (stereo partly drawn) [Compound 59]	5.4
CC[C@@]1(O)C(=O)OCc2c1cc1n(c2=O)Cc2c-1nc1cc(F)c(C)c3c1c2[C@@H](N(C)CC(F)F)CC3 [Compound 60, (1S,9S)-1-((2,2-difluoroethyl)(methyl)amino)-9-ethyl-5-fluoro-9-hydroxy-4-methyl-1,2,3,9,12,15-hexahydro-10H,13H-benzo[de]pyrano[3′,4′: 6,7]indolizino[1,2-b]quinoline-10,13-dione]	9.6

Same assay, conditions: Homo sapiens; Jeko-1 cells, 3000 cells/well; compounds added Day 1; CellTiter-Glo 2.0 luminescence read on Day 4 or 5; read-out: Jeko-1 EC50

SMILES	pEC50
CC[C@@]1(O)C(=O)OCc2c1cc1n(c2=O)Cc2c-1nc1cc(F)c(C)c3c1c2[C@@H](NCCO)CC3 [Compound 51, (1S,9S)-9-ethyl-5-fluoro-9-hydroxy-1-((2-hydroxyethyl)amino)-4-methyl-1,2,3,9,12,15-hexahydro-10H,13H-benzo[de]pyrano[3′,4′: 6,7]indolizino[1,2-b]quinoline-10,13-dione formate]	8.43
